Laboratory results reported in PubChem BioAssay (NCI).
Where “and” joins values, the source holds several entries; their conditions need not be identical. Equal values may be shown once.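 These data come from cells grown in 96-well plates and exposed to compound for 48 hours at five concentrations. Here, GI50 denotes the concentration required for 50% inhibition of growth. At the TGI there is no net growth.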 Non-standard residues stand in square brackets, D forms with d. Residues, ends and D or L forms follow the SMILES beside them. *: point of attachment. ONb = O=[N+]([O-])c1ccc(CO*)cc1; AllylGly = C=CC[CH](N)C(=O)O; Boc = CC(C)(C)OC(=O)*

Tests used:
Assay in all cases: inhibition of tumour cell growth, NCI panel, 48 h
HCC-2998 colon = system: HCC-2998 colon
HCT-15 colon = system: HCT-15 colon
NCI-H23 lung = system: NCI-H23 lung
OVCAR-3 ovarian = system: OVCAR-3 ovarian
RXF 393 renal = system: RXF 393 renal
SF-268 CNS = system: SF-268 CNS
SN12C renal = system: SN12C renal
SW-620 colon = system: SW-620 colon
UO-31 renal = system: UO-31 renal
OVCAR-4 ovarian = system: OVCAR-4 ovarian

Row | Compound | TGI (HCC-2998 colon) | TGI (HCT-15 colon) | TGI (NCI-H23 lung) | TGI (OVCAR-3 ovarian) | TGI (RXF 393 renal) | TGI (SF-268 CNS) | TGI (SN12C renal) | TGI (SW-620 colon) | TGI (UO-31 renal) | GI50 (HCC-2998 colon) | GI50 (HCT-15 colon) | GI50 (NCI-H23 lung) | GI50 (OVCAR-3 ovarian) | GI50 (OVCAR-4 ovarian) | TGI (OVCAR-4 ovarian) | GI50 (RXF 393 renal) | GI50 (SF-268 CNS) | GI50 (SN12C renal) | GI50 (SW-620 colon) | GI50 (UO-31 renal)
1 | Cn1c(=O)nc2n(-c3ccc(Cl)cc3)c3ccc(Cl)cc3nc-2c1=O | 40.6 µM | 26.5 µM | 8.65 µM | 8.14 µM | 7.93 µM | 19.7 µM | 27.6 µM | 19.2 µM | 39.8 µM | – | – | – | – | – | – | – | – | – | – | –
2 | COc1ccc(Cl)cc1Nc1nc(C(F)(F)F)ccc1C(=O)N/N=C/c1c(Cl)cccc1Cl | > 100 µM | > 100 µM | > 100 µM | 4.32 µM | 58.8 µM | > 100 µM | > 100 µM | – | – | 5.37 µM | 3.26 µM | 38.5 µM | 1.59 µM | 5.16 µM | > 100 µM | 17.9 µM | 5.28 µM | 8.78 µM | – | –
3 | Cc1cc2c(c(C#N)c1C)NC(=O)CCC2=O | > 100 µM | > 100 µM | > 100 µM | > 100 µM | > 100 µM | – | > 100 µM | > 100 µM | 91.4 µM | – | – | – | – | – | > 100 µM | – | – | – | – | –
4 | C=CCC(NC(=O)OC(C)(C)C)C(=O)NC(CCC(=O)OCc1ccc([N+](=O)[O-])cc1)C(N)=O (configuration not stated) (Boc-[AllylGly]-Glu(ONb)-NH2; configuration not given here) | 43.7 µg/mL | – | 91.8 µg/mL | 90.1 µg/mL | – | 49.7 µg/mL | – | – | 38.5 µg/mL | 19.2 µg/mL | – | 29.6 µg/mL | 26.3 µg/mL | 87.2 µg/mL | – | – | 21.8 µg/mL | 57.5 µg/mL | 95.9 µg/mL | 19.7 µg/mL
5 | COC(=O)N[C@H]1CCc2c(Br)c(OC)c(OC)c(OC)c2-c2ccc(SC)c(=O)cc21 | 11.5 µM | 11.6 µM | 18.5 µM | < 0.01 µM | – | 16.6 µM | 25.5 µM | 19.7 µM | 19 µM | < 0.01 µM | < 0.01 µM | < 0.01 µM | < 0.01 µM | 0.152 µM | > 57 µM | – | < 0.01 µM | < 0.01 µM | < 0.01 µM | < 0.0281 µM
6 | N#Cc1c(Sc2ccccc2N)cccc1Sc1ccccc1N | – | – | – | – | – | – | – | – | – | 67.7 µM | 55.6 µM | 59 µM | – | 42.1 µM | – | 72.8 µM | 38.4 µM | 42.1 µM | 79.8 µM | 7.56 µM
7 | O=C(O)c1c(-c2cccc3ccccc23)sc(-c2cccc3ccccc23)c1C(=O)O | > 100 µM | > 100 µM | > 100 µM | > 100 µM | > 100 µM | > 100 µM | > 100 µM | > 100 µM | > 100 µM | – | – | – | – | – | – | – | – | – | – | –
8 | CC1OC(OCC2OC(Oc3c(-c4ccc(O)cc4)oc4cc(O)cc(O)c4c3=O)C(OC3OCC(O)(CO)C3O)C(O)C2O)C(O)C(O)C1O (configuration not stated) | > 100 µM | 53.2 µM | > 100 µM | > 100 µM | – | > 100 µM | > 100 µM | > 100 µM | > 100 µM | – | – | – | – | – | > 100 µM | – | – | – | – | –
9 | Cc1ccc(OCC(=O)N2N=C(c3ccccc3)CC2(O)c2ccccc2)cc1 (configuration not stated) | > 100 µM | > 100 µM | > 100 µM | > 100 µM | – | > 100 µM | 40.3 µM | > 100 µM | > 100 µM | – | – | – | – | – | 71.6 µM | – | – | – | – | –
10 | COc1cc(CCc2ccc(OCCN(C)C)cc2)cc(OC)c1OC | – | > 100 µM | – | > 100 µM | > 100 µM | > 100 µM | > 100 µM | > 100 µM | > 100 µM | – | – | – | – | – | > 100 µM | – | – | – | – | –
11 | COc1cc2c3c(n(C)c(=O)c2cc1OC)-c1cc2c(cc1/C3=C\CCCCCN)OCO2 | 39.5 µM | 12.7 µM | 13.3 µM | 22.1 µM | 41 µM | 47.9 µM | 18.4 µM | – | > 100 µM | 1.28 µM | 1.58 µM | 1.62 µM | 2.79 µM | 17.4 µM | > 94.1 µM | 7 µM | 3.92 µM | 0.271 µM | – | 2.08 µM
12 | N#CCC1COc2ccccc2O1 (configuration not stated) | > 10 µM | > 10 µM | > 10 µM | – | – | > 10 µM | > 10 µM | > 10 µM | – | – | – | – | – | – | > 10 µM | – | – | – | – | –
13 | O=C(O)CSc1n[nH]c(-c2ccc(O)cc2)n1 | > 100 µM | > 100 µM | > 100 µM | > 100 µM | – | > 100 µM | – | > 100 µM | > 100 µM | – | – | – | – | – | > 100 µM | – | – | – | – | –
14 | O=C(c1ccccc1)C(C(=O)c1ccccc1)C1(O)C(=O)c2ccccc2C1=O | > 100 µM | > 100 µM | 84.6 µM | > 100 µM | 0.889 µM | > 100 µM | > 100 µM | > 100 µM | > 100 µM | – | – | – | – | – | – | – | – | – | – | –
15 | N#Cc1cn(C2OC(CO)C(O)C2O)c2ncnc(N)c12 (configuration not stated) | – | – | – | – | 0.0958 µM and 0.0708 µM | – | – | > 100 µM | 0.665 µM and 0.819 µM and 1.98 µM | 0.0609 µM and 0.0758 µM and < 0.0249 µM | < 0.0117 µM | 0.0256 µM | – | 0.0282 µM and 0.0117 µM | – | 0.0161 µM | < 0.01 µM | < 0.0119 µM | < 0.0145 µM | 0.0658 µM and 0.0459 µM and 0.0271 µM
16 | COc1ccc(-c2nc3sc(C)cn3c2/C=C/C(=O)c2cc(OC)c(OC)c(OC)c2)cc1 | 7.66 µM | > 100 µM | – | 5.83 µM | – | > 100 µM | > 100 µM | – | 7.61 µM | 3.71 µM | 3.35 µM | – | 2.34 µM | 3.15 µM | > 100 µM | – | 3.53 µM | 4.07 µM | – | 2.27 µM
17 | CC1=C(C(=O)Nc2c(C)cccc2C)C(c2ccc3c(c2)OCO3)C(C(=O)Nc2c(C)cccc2C)=C(C)N1 | 32.3 µM | – | 29.8 µM | 98.6 µM | 33.9 µM | 48.5 µM | 32.7 µM | 36.5 µM | 30.6 µM | – | – | – | – | – | 77.3 µM | – | – | – | – | –
18 | O=C(Oc1ccc(Cl)cc1Cl)c1ccccc1Nc1ccnc(C(F)(F)F)c1 | 5.49 µM | 5.31 µM | 13.6 µM | 24.9 µM | – | 13.6 µM | 7.63 µM | 32.5 µM | > 100 µM | 3.25 µM | 2.26 µM | 3.51 µM | 11 µM | – | – | – | 3.11 µM | 3.01 µM | 4.59 µM | 18.1 µM
